# Experimental data published in patent EP0268396B1, “4-(benzoyl)thiophene(or furan)-sulfonamide and derivatives thereof for the topical treatment of elevated intraocular pressures” (Merck & Co., Inc., priority 1986, dated 1988).
# Counter-ions that a name gives are not always drawn.
# System: a-chymotrypsinized rabbit eye
# Assay: Effect of topically administered drug on the α-chymotrypsin-induced elevation of IOP in the rabbit
# Format: in vivo
# Details: dose 0.5 %, single 50 µl drop applied topically in hydroxyethylcellulose (HEC) vehicle; maximum, statistically significant drop in IOP during the 5 hour duration of the assay
row,Compound,MAX. IOP DROP (mm Hg)
1,"NS(=O)(=O)c1cc(C(=O)c2cccc(CNCc3ccccn3)c2)cs1 [3-( [drawing] CH2NHCH2-), 4-[3-(2-Pyridylmethylaminomethyl)]benzoylthiophene-2-sulfonamide dihydrochloride]",-4.0
2,"CC(C)CN(C)Cc1cccc(C(=O)c2csc(S(N)(=O)=O)c2)c1 [3-i-BuN(CH3)CH2-, 4-[3-(N-lsobutyl-N-methyl)aminomethyl]benzoylthiophene-2 sulfonamide]",-4.0
3,"CC(C)CNCc1cccc(C(=O)c2csc(S(N)(=O)=O)c2)c1 [Example 3-i-BuNHCH2-, 4-[3-(lsobutylaminomethyl)benzoyl]thiophene-2-sulfonamid]",-7.3
4,CCCCNCc1ccc(C(=O)c2csc(S(N)(=O)=O)c2)cc1 [Example 4-n-BuNHCH2-],-3.0
